Patent publication US11883526B2 (priority 2019, dated 2024)

Columns and labels:
[1] = test system: elderly subjects with TRD; assay type: in vivo, human; conditions: each dosing day
From the text: The Modified Observer's Assessment of Alertness/Sedation (MOAA/S) was used to measure treatment-emergent sedation with correlation to levels of sedation defined by the American Society of Anesthesiologists (ASA) continuum. The MOAA/S scores range from 0 (No response to painful stimulus; corresponds to ASA continuum for general anesthesia) to 5 (Readily responds to name spoken in normal tone [awake]; corresponds to ASA continuum for minimal sedation). The proportion of subjects with sedation was <4% for the esketamine group for each dosing day.

[2] = test system: subjects with MDD at imminent risk for suicide; assay: Beck Hopelessness Scale, BHS ([…]2001); assay type: in vivo, human; conditions: 84 mg, ANCOVA LOCF, ITT
From the text: The BHS is a self-reported measure to assess one's level of negative expectations or pessimism regarding the future. It consists of 20 true-false items that examine the respondent's attitude over the past week by either endorsing a pessimistic statement or denying an optimistic statement. For every statement, each response is assigned a score of 0 or 1. The total BHS score is a sum of item responses and ranges from 0 to 20, with a higher score representing a higher level of hopelessness.

[3] = 14-day study, 54 mg/day intranasal
Method: This study includes a single dose and 14-day repeated dose neurotoxicity studies with intranasally administered esketamine in female rats 12 to 14 weeks of age. These studies were conducted to investigate whether single or repeated intranasal administrations of esketamine induced neurodegenerative changes in the rat brain. The study results were used to estimate an esketamine exposure-based safety margin compared with the maximum dose of esketamine administered intranasally to depressed adult patients in clinical trials.
Each group of main study animals consisted of 12 female rats. Four satellite animals were added to the esketamine HCl-dosed groups of main study animals for TK purposes. The plasma exposure to esketamine was measured in these animals on the first and the last day of dosing at various time points up to and including 24 hours after the first instillation.

[4] = test system: patients with treatment-resistant depression (TRD); assay: CGI-S (Example 7); assay type: in vivo, human
Method: (§1) Overall illness severity was assessed on the Clinical Global Impression of Severity (CGI-S) scale (Guy, “ECDEU Assessment Manual for Psychopharmacology—Revised (DHEW Publ No ADM 76-338)”, Rockville, Md.: U.S. Department of Health, Education, and Welfare, Public Health Service, Alcohol, Drug Abuse, and Mental Health Administration, NIMH Psychopharmacology Research Branch, Division of Extramural Research Programs; 1976, pp 218-222). Participants assessed their severity of anxiety on the Generalized Anxiety Disorder 7-item (GADS-7) Scale (See, Tables 157 and 158). See, Spitzer, “A brief measure for assessing generalized anxiety disorder—the GAD-7”, Arch. Intern. Med., 2006, 166(10):1092-1097.

[5] = test system: patients with treatment-resistant depression (TRD); assay: GAD-7 (Example 7); assay type: in vivo, human
Method: as §1

[6] = test system: patients with treatment-resistant depression (TRD); assay: CADSS (Example 7); design: species or system human; conditions: in vivo
Method: (§2) Adverse events were monitored throughout the study. Other safety assessments (i.e., laboratory tests, vital signs, physical examination) were performed at pre-specified time points. Vital signs, the Clinician Administered Dissociative States Scale (CADSS; Bremner, “Measurement of dissociative states with the clinician-administered dissociative states scale (CADSS)”, J. Traumatic Stress, 1998, 11(1):125-136), and the 4-item positive symptom subscale from the Brief Psychiatric Rating Scale (BPRS; Overall, “The Brief Psychiatric Rating Scale. Psychological Reports”, 1962, 10:799-812) were assessed pre-dose, at 40 minutes, and 2 hours post-dose.

[7] = test system: patients with treatment-resistant depression (TRD); assay: BPRS positive symptom subscale (Example 7); design: species or system human; conditions: in vivo
Method: as §2

[8] = Pharmacokinetics assembled from 14 Phase 1 studies (Example 10); conditions: for Terminal t1/2 / AUClast / Cmax / tmax: young adult subjects; for Terminal t1/2: range across studies; for AUClast / Cmax: range of mean values; for tmax: range of median values
Method: The data herein was assembled from 14 Phase 1 studies; each Phase 1 study was performed similarly to the study outlined in Example 9 in which the PK of esketamine was assessed.

adult subjects with TRD = conditions: double-blind phase
Method: The MOAA/S was used to measure treatment-emergent sedation, with correlation to levels of sedation defined by the American Society of Anesthesiologists (ASA) continuum. The MOAA/S scores range from 0=no response to painful stimulus (corresponds to ASA continuum for general anesthesia) to 5=readily responds to name spoken in normal tone (awake; corresponds to ASA continuum for minimal sedation).
On each intranasal dosing day, the MOAA/S was performed every 15 minutes from pre-dose to t=+1.5 hours post-dose. If the score was ≤3 at any time during the 1.5 hours post-dose interval, the MOAA/S was performed every 5 minutes until a score of 4 is reached (at which point a frequency of every 15 minutes can be resumed until t=+1.5 hours post dose). […] For subjects with a score of 4, the assessment was repeated every 15 minutes. […]
The Modified Observer's Assessment of Alertness/Sedation (MOAA/S) was used to measure treatment-emergent sedation with correlation to levels of sedation defined by the American Society of Anesthesiologists (ASA) continuum. The MOAA/S scores ranged from 0 (No response to painful stimulus; corresponds to ASA continuum for general anesthesia) to 5 (Readily responds to name spoken in normal tone [awake]; corresponding to ASA continuum for minimal sedation).

[9] = test system: elderly subjects with TRD; conditions: double-blind phase
Method: (§3) The Clinician Administered Dissociative States Scale (CADSS) was measured prior to the start of each dose, at 40 minutes, and 1.5 hours postdose.

subjects with TRD = conditions: human, in vivo, other: intranasal
Method: as §3

## CN[C@]1(c2ccccc2Cl)CCCCC1=O [esketamine, (S)-2-(2-chlorophenyl)-2-(methylamino)cyclohexanone]
[1]
  proportion of subjects with sedation (post dose MOAA/S score ≤3): < 4%
[2]; Day 1(DB): 4 H
  BHS total score change from baseline, Diff. of LS Means (minus Placebo): −1.5
[2]; End Point(DB)
  BHS total score change from baseline, Diff. of LS Means (minus Placebo): −2.3
[3]
  AUC-based safety margin compared with the maximum 84 mg clinical dose: ~11 fold
  Cmax-based safety margin compared with the maximum 84 mg clinical dose: approximately 17 fold
[4]; Period 1 (first day to day 8), 28 mg
  CGI-S change from baseline, Median Change (Range): −1.0 (−2, 1)
[4]; Period 1 (first day to day 8), 56 mg
  CGI-S change from baseline, Median Change (Range): −1.0 (−3, 0)
[4]; Period 1 (first day to day 8), 84 mg
  CGI-S change from baseline, Median Change (Range): −0.5 (−4, 0)
[4]; Period 1, 28 mg
  CGI-S at end point, Median (Range): 4.0 (3, 5)
[4]; Period 1, 56 mg
  CGI-S at end point, Median (Range): 4.0 (1, 5)
[4]; Period 1, 84 mg
  CGI-S at end point, Median (Range): 4.0 (1, 6)
[4]; Period 2 (first day to day 8 of period), 28 mg
  CGI-S change from baseline, Median Change (Range): −1.0 (−1, 0)
[4]; Period 2 (first day to day 8 of period), 56 mg
  CGI-S change from baseline, Median Change (Range): −1.0 (−2, 0)
[4]; Period 2 (first day to day 8 of period), 84 mg
  CGI-S change from baseline, Median Change (Range): −1.0 (−2, 0)
[4]; Period 2, 28 mg
  CGI-S at end point, Median (Range): 4.0 (3, 5)
[4]; Period 2, 56 mg
  CGI-S at end point, Median (Range): 5.0 (4, 6)
[4]; Period 2, 84 mg
  CGI-S at end point, Median (Range): 4.0 (3, 5)
[5]; Period 1, 28 mg
  GAD-7 change, LS mean difference from placebo (SE): −0.21 (1.461)
[5]; Period 1, 56 mg
  GAD-7 change, LS mean difference from placebo (SE): −1.40 (1.478)
[5]; Period 2, 56 mg
  GAD-7 change, LS mean difference from placebo (SE): 0.60 (1.033)
[6]
  perceptual changes/dissociative symptoms (CADSS) peaked around: 30 to 40 min
  perceptual changes/dissociative symptoms (CADSS) resolved by: ≤ 2 h
[7]
  symptoms suggestive of psychosis (BPRS-positive assessment): No participant manifested symptoms suggestive of psychosis
[8]; nasal administration
  mean terminal t1/2: 7 to 12 h
[8]; single dose nasal spray 28 mg
  Terminal t1/2: 7.25 to 16.5 h
  AUClast: 128 to 183 ng·h/mL
  Cmax: 49.7 to 70.5 ng/mL
  tmax: 0.33 to 0.67 h
[8]; single dose nasal spray 56 mg
  Terminal t1/2: 6.8 to 9.83 h
  AUClast: 216 to 317 ng·h/mL
  Cmax: 71.8 to 117 ng/mL
  tmax: 0.50 to 0.77 h
[8]; single dose nasal spray 84 mg
  Terminal t1/2: 6.6 to 12.0 h
  AUClast: 310 to 489 ng·h/mL
  Cmax: 95.0 to 164 ng/mL
  tmax: 0.53 to 0.83 h
Adult subjects with TRD
  sedation (MOAA/S) resolved by: ≤ 1.5 hours postdose
[9]
  dissociative and perceptual change symptoms (CADSS) resolved by: ≤ 1.5 hours postdose
Subjects with TRD
  dissociative/perceptual change symptoms (CADSS) resolved by: ≤ 1.5 hours post dose
